Assay results: patent US7901667B2, “Bridgehead labelled compounds and methods of using the same” (Mallinckrodt Inc., priority 2005, dated 2011)

How the values were obtained:
[1] = test system: α1-adrenoceptors; details: cited from earlier work
[2] = X = Tosylate, relative to tert-Butyl, cited from earlier work; for Relative rate of hydrolysis, calc.: calculated; for Relative rate of hydrolysis, exp.: experimental
[3] = target: T1, 5-HT1A receptors (Homo sapiens, UniProt P08908); details: cited from earlier work
T1 sequence (P08908 1-422): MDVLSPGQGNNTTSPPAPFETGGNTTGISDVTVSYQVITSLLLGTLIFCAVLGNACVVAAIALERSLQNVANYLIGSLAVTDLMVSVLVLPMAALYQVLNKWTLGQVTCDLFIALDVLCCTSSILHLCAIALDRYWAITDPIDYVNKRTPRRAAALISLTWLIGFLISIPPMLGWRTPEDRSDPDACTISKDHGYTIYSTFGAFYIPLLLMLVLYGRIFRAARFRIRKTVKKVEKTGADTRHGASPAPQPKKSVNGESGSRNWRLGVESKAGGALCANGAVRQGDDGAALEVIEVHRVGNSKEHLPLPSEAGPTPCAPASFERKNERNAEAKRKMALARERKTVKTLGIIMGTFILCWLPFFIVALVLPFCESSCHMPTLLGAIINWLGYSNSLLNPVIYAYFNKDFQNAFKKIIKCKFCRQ

[4] = amide hydrolysis; cited from earlier work
[5] = target: T2, human recombinant human 5-HT1A receptor subtype (Homo sapiens, UniProt P08908); test: competitive binding assay with [^3H]8-OH-DPAT on membranes of HEK-293 EBNA-cells
T2 construct: purchased Perkin Elmer (Boston, USA); host or cells: HEK-293 EBNA cells (membrane suspension)
T2 sequence (P08908 1-422): T1 sequence (P08908 1-422)
Procedure: A membrane suspension from HEK-293 EBNA-cells expressing the human recombinant human 5-HT1A receptor subtype, was obtained from Perkin Elmer (Boston, USA). The protein concentration of the original suspension was 36.8 mg/mL.
Aliquots of these diluted membranes (factor 1:20) were incubated on microplates for 120 min at 37° C. in the dark. […] The incubation buffer contained 50 mM TRIS-HCl and 5 mM MgSO4 (pH to 7.4 at 25° C.). […] Non-specific binding was determined using 5-hydroxytryptamine (5-HT, serotonin) as a competitor in a concentration of 10 μM.
After the incubation period, the reaction was rapidly terminated by vacuum filtration over a GF/C glass fiber filters that were incorporated in the microplates and that were presoaked in 0.5% polyethylenimine (Sigma-Aldrich, Munich, Germany), and washed 5 times with ice-cold TRIS-HCl buffer. 25 μL of scintillation fluid (MicroScint™, Perkin Elmer, Boston, USA) were added to each well, after which the microplates were counted in a liquid scintillation counter (Topcount, Packard).
For each candidate tracer, the inhibition constant (Ki) was calculated from the […] for the 5-HT1A receptor with non-linear regression curve fitting using the computer program Graphpad Prism® (version 3.02).

[6] = at 60 min, relative to whole brain average; cited from earlier work

Compound | Relative rate of hydrolysis, calc. [2] | Relative rate of hydrolysis, exp. [2] | further results
COc1ccccc1N1CCN(CCN(C(=O)c2ccc([123I])cc2)c2ccccn2)CC1 [MPPI] | – | – | affinity for the α1-adrenoceptors [1]: quite high affinity
COc1ccccc1N1CCN(CCN(C(=O)c2ccc(F)cc2)c2ccccn2)CC1 [MPPF] | – | – | affinity for the α1-adrenoceptors [1]: quite high affinity
Cc1ccc(S(=O)(=O)OC23CCC(CC2)CC3)cc1 [1-Bicyclo[2.2.2]octyl] | 10^−8 | 10^−7 | –
COc1ccccc1N1CCN(CCN(C(=O)C2CC3CCC2CC3)c2ccccn2)CC1 (stereo not drawn) [CPC-222] | – | – | affinity with regard to WAY-100635 [3]: comparable affinity; stability towards hydrolysis [4]: stable towards hydrolysis
Cc1ccc(S(=O)(=O)OC23C4C5C6C4C2C6C53)cc1 (stereo not drawn) [Cubyl] | <10^−25 | 10^−10 | –
Cc1ccc(S(=O)(=O)OC23CCC(CC2)C3)cc1 [1-Norbornyl] | 10^−14 | 10^−13 | –
COc1ccccc1N1CCN(CCN(C(=O)C23C4C5C2C2C3C4C52I)c2ccccn2)CC1 (stereo not drawn) [iodocubyl-WAY] | – | – | affinity towards the human 5-HT1A (Ki) ([5]; [^3H]8-OH-DPAT 1.1 nM, 120 min at 37° C., n=4, values only in FIG. 6): subnanomolar range; rank of affinity among the bridgehead iodo WAY derivatives ([5]; iodobicyclooctyl, iodoadamantyl, iodonorbornyl and iodocubyl compared, FIG. 6): highest affinity
COc1ccccc1N1CCN(CCN(C(=O)C2CCC(F)CC2)c2ccccn2)CC1 (stereo not drawn) [FCWAY] | – | – | skull uptake of [^18F] [6]: twice the whole brain average
Cc1ccc(S(=O)(=O)OC23CC4CC(CC(C4)C2)C3)cc1 [1-Adamantyl] | 10^−4 | 10^−3 | –
